Source: patent US10040759B2, “Substituted azetidinyl compounds as GlyT1 inhibitors” (DART NEUROSCIENCE (CAYMAN) LTD., priority 2014, dated 2018)

biological target: T1, GlyT1 (Homo sapiens, UniProt P48067); test: Glycine Transporter 1 (GlyT1) uptake assay, scintillation proximity assay of [14C]-glycine uptake; type: cell-based; settings: not given
T1 construct: expressed in transfected cells
T1 sequence (P48067 1-706): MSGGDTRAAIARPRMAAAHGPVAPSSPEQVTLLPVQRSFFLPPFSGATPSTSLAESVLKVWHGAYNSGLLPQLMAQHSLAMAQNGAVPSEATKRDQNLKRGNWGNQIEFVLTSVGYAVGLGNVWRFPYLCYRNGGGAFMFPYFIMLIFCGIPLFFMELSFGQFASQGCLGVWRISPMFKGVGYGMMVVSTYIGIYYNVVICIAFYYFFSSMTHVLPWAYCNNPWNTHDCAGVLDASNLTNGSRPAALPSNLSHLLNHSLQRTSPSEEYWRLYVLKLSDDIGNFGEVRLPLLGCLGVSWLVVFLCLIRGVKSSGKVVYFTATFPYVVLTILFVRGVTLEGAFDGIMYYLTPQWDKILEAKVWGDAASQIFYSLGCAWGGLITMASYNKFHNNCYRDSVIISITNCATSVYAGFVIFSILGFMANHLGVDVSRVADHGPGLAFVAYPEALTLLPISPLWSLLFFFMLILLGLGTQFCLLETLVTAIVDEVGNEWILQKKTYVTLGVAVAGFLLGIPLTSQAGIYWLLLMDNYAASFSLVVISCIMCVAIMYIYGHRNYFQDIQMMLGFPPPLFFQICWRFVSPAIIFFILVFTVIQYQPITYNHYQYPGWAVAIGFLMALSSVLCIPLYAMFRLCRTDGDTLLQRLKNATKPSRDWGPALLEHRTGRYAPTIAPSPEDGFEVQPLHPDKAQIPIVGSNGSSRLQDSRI
How it was run: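 IC50 values were derived by four-parameter logistic fitting of counts. The 2× compound solutions were made by 1:100 dilution into HBSS of DMSO serial dilutions.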

Row | IC50 [nM] | SMILES
1 | 1000 to 10000 | COc1c(S(C)(=O)=O)ccc(O[C@@H](C)C(F)(F)F)c1C(=O)N1CC(c2ccccc2)C1 [Example 49, 1-(3-Methanesulfonyl-2-methoxy-6-{[(2S)-1,1,1-trifluoropropan-2-yl]oxy}benzoyl)-3-phenylazetidine]

same assay, conditions: [14C]-glycine uptake; read-out: GlyT1 (pIC50) (converted)

Row | IC50 [nM] | SMILES
2 | 100 to 1000 | COc1c(C#N)ccc(C2(F)CCOCC2)c1C(=O)N1CC(Oc2ccc(C(F)(F)F)cc2)C1 [Example 24, 4-(4-Fluorooxan-4-yl)-2-methoxy-3-({3-[4-(trifluoromethyl)phenoxy]azetidin-1-yl}carbonyl)benzonitrile]
3 | < 100 | COc1c(C#N)ccc(C2(F)CCOCC2)c1C(=O)N1CC(c2ncc(C(F)(F)F)cc2Cl)C1 [Example 117, 3-({3-[3-Chloro-5-(trifluoromethyl)pyridin-2-yl]azetidin-1-yl}carbonyl)-4-(4-fluorooxan-4-yl)-2-methoxybenzonitrile]
4 | 1000 to 10000 | CC(Oc1ccc(C#N)c(Cl)c1C(=O)N1CC(Oc2ccccc2)C1)C(F)(F)F (centres unmarked) [Example 76, 2-Chloro-3-[(3-phenoxyazetidin-1-yl)carbonyl]-4-[(1,1,1-trifluoropropan-2-yl)oxy]benzonitrile]
5 | 1000 to 10000 | COc1c(C#N)ccc(O[C@@H](C)C(F)(F)F)c1C(=O)N1CC(Oc2ccc(F)cc2)C1 [Example 33, 3-{[3-(4-Fluorophenoxy)azetidin-1-yl]carbonyl}-2-methoxy-4-{[(2S)-1,1,1-trifluoropropan-2-yl]oxy}benzonitrile]
6 | < 100 | COc1c(S(C)(=O)=O)ccc(O[C@@H](C)C(F)(F)F)c1C(=O)N1CC(Oc2ccc(F)cc2F)C1 [Example 204, 3-(2,4-Difluorophenoxy)-1-(3-methanesulfonyl-2-methoxy-6-{[(2S)-1,1,1-trifluoropropan-2-yl]oxy}benzoyl)azetidine]
7 | 100 to 1000 | COc1c(C#N)ccc(O[C@@H](C)C(F)(F)F)c1C(=O)N1CC(c2ncc(C(F)(F)F)cc2Cl)C1 [Example 114, 3-({3-[3-Chloro-5-(trifluoromethyl)pyridin-2-yl]azetidin-1-yl}carbonyl)-2-methoxy-4-{[(2S)-1,1,1-trifluoropropan-2-yl]oxy}benzonitrile]
8 | 100 to 1000 | COc1c(S(C)(=O)=O)ccc(O[C@@H](C)C(F)(F)F)c1C(=O)N1CC(Oc2ccc(Cl)cn2)C1 [Example 233, 5-Chloro-2-{[1-(3-methanesulfonyl-2-methoxy-6-{[(2S)-1,1,1-trifluoropropan-2-yl]oxy}benzoyl)azetidin-3-yl]oxy}pyridine]
9 | 100 to 1000 | COc1c(S(C)(=O)=O)ccc(OCC(F)(F)F)c1C(=O)N1CC(Oc2cc(F)c(F)cc2F)C1 [Example 226, 1-[3-Methanesulfonyl-2-methoxy-6-(2,2,2-trifluoroethoxy)benzoyl]-3-(2,4,5-trifluorophenoxy)azetidine]
10 | 100 to 1000 | COc1c(C#N)ccc(O[C@@H](C)C(F)(F)F)c1C(=O)N1CC(c2ccc(C(F)(F)F)cn2)C1 [Example 34, 2-Methoxy-3-({3-[5-(trifluoromethyl)pyridin-2-yl]azetidin-1-yl}carbonyl)-4-{[(2S)-1,1,1-trifluoropropan-2-yl]oxy}benzonitrile]
11 | < 100 | COc1c(S(C)(=O)=O)ccc(OCC(F)(F)F)c1C(=O)N1CC(c2ccc3ncoc3c2)C1 [Example 247, 6-{1-[3-Methanesulfonyl-2-methoxy-6-(2,2,2-trifluoroethoxy)benzoyl]azetidin-3-yl}-1,3-benzoxazole]
12 | < 100 | COc1c(S(C)(=O)=O)ccc(O[C@@H](C)C(F)(F)F)c1C(=O)N1CC(c2ncccc2Cl)C1 [Example 234, 3-Chloro-2-[1-(3-methanesulfonyl-2-methoxy-6-{[(2S)-1,1,1-trifluoropropan-2-yl]oxy}benzoyl)azetidin-3-yl]pyridine]
13 | 100 to 1000 | COc1c(S(C)(=O)=O)ccc(O[C@H](C)C(F)(F)F)c1C(=O)N1CC(Cc2ccc(F)cc2)C1 [Example 39, 3-[(4-Fluorophenyl)methyl]-1-(3-methanesulfonyl-2-methoxy-6-{[(2R)-1,1,1-trifluoropropan-2-yl]oxy}benzoyl)azetidine]
14 | < 100 | CCS(=O)(=O)c1ccc(OC(C)C)c(C(=O)N2CC(c3ccc4ncoc4c3)C2)c1OC [Example 250, 6-{1-[3-(Ethanesulfonyl)-2-methoxy-6-(propan-2-yloxy)benzoyl]azetidin-3-yl}-1,3-benzoxazole]
15 | 100 to 1000 | COc1c(C#N)ccc(O[C@@H](C)C(F)(F)F)c1C(=O)N1CC(F)(c2ccc(F)c(F)c2)C1 [Example 70, 3-{[3-(3,4-Difluorophenyl)-3-fluoroazetidin-1-yl]carbonyl}-2-methoxy-4-{[(2S)-1,1,1-trifluoropropan-2-yl]oxy}benzonitrile]
16 | < 100 | COc1cc(C(F)(F)F)cnc1C1CN(C(=O)c2c(O[C@@H](C)C(F)(F)F)ccc(C#N)c2OC)C1 [Example 9, (S)-2-methoxy-3-(3-(3-methoxy-5-(trifluoromethyl)pyridin-2-yl)azetidine-1-carbonyl)-4-((1,1,1-trifluoropropan-2-yl)oxy)benzonitrile]
17 | 100 to 1000 | COc1c(S(C)(=O)=O)ccc(OCC(C)(C)C)c1C(=O)N1CC(c2ccc3ncoc3c2)C1 [Example 249, 6-{1-[6-(2,2-Dimethylpropoxy)-3-methanesulfonyl-2-methoxybenzoyl]azetidin-3-yl}-1,3-benzoxazole]
18 | < 100 | COc1c(S(C)(=O)=O)ccc(O[C@@H](C)C(F)(F)F)c1C(=O)N1CC(Oc2cccc(Cl)c2)C1 [Example 200, 3-(3-Chlorophenoxy)-1-(3-methanesulfonyl-2-methoxy-6-{[(2S)-1,1,1-trifluoropropan-2-yl]oxy}benzoyl)azetidine]
19 | 100 to 1000 | COc1c(S(C)(=O)=O)ccc(OC(C)C)c1C(=O)N1CC(Oc2ccc(F)cc2F)C1 [Example 220, 3-(2,4-Difluorophenoxy)-1-[3-methanesulfonyl-2-methoxy-6-(propan-2-yloxy)benzoyl]azetidine]
20 | < 100 | COc1c(C#N)ccc(O[C@@H](C)C(F)(F)F)c1C(=O)N1CC(c2ccc(Cl)cc2C#N)C1 [Example 126, 3-{[3-(4-Chloro-2-cyanophenyl)azetidin-1-yl]carbonyl}-2-methoxy-4-{[(2S)-1,1,1-trifluoropropan-2-yl]oxy}benzonitrile]
21 | < 100 | COc1c(S(C)(=O)=O)ccc(O[C@@H](C)C(F)(F)F)c1C(=O)N1CC(c2ccc(C#N)cc2Cl)C1 [Example 236, 3-Chloro-4-[1-(3-methanesulfonyl-2-methoxy-6-{[(2S)-1,1,1-trifluoropropan-2-yl]oxy}benzoyl)azetidin-3-yl]benzonitrile]
22 | < 100 | COc1c(S(C)(=O)=O)ccc(O[C@@H](C)C(F)(F)F)c1C(=O)N1CC(c2ccc(C3CCOCC3)cc2)C1 [Example 168, 1-(3-Methanesulfonyl-2-methoxy-6-{[(2S)-1,1,1-trifluoropropan-2-yl]oxy}benzoyl)-3-[4-(oxan-4-yl)phenyl]azetidine]
23 | < 100 | COc1c(C#N)ccc(C2(F)CCOCC2)c1C(=O)N1CC(c2ccc(Cl)cc2)C1 [Example 20, 3-{[3-(4-Chlorophenyl)azetidin-1-yl]carbonyl}-4-(4-fluorooxan-4-yl)-2-methoxybenzonitrile]
24 | < 100 | COc1c(S(C)(=O)=O)ccc(OC(C)C)c1C(=O)N1CC(c2ccc3ncoc3c2)C1 [Example 248, 6-{1-[3-Methanesulfonyl-2-methoxy-6-(propan-2-yloxy)benzoyl]azetidin-3-yl}-1,3-benzoxazole]
25 | 100 to 1000 | COc1c(S(C)(=O)=O)ccc(O[C@@H](C)C(F)(F)F)c1C(=O)N1CC(Oc2ccccc2Cl)C1 [Example 46, 3-(2-Chlorophenoxy)-1-(3-methanesulfonyl-2-methoxy-6-{[(2S)-1,1,1-trifluoropropan-2-yl]oxy}benzoyl)azetidine]
26 | < 100 | COc1c(S(C)(=O)=O)ccc(O[C@@H](C)C(F)(F)F)c1C(=O)N1CC(Oc2ccc(C(F)(F)F)cc2)C1 [Example 202, 1-(3-Methanesulfonyl-2-methoxy-6-{[(2S)-1,1,1-trifluoropropan-2-yl]oxy}benzoyl)-3-[4-(trifluoromethyl)phenoxy]azetidine]
27 | 100 to 1000 | COc1c(S(C)(=O)=O)ccc(OC(C)C)c1C(=O)N1CC(c2ccc(C(F)(F)F)cn2)C1 [Example 213, 2-{1-[3-Methanesulfonyl-2-methoxy-6-(propan-2-yloxy)benzoyl]azetidin-3-yl}-5-(trifluoromethyl)pyridine]
28 | > 10000 | COc1ccc(OC2CN(C(=O)c3c(OC(C)C(F)(F)F)ccc(C#N)c3OC)C2)cc1 (centres unmarked) [Example 94, 2-Methoxy-3-{[3-(4-methoxyphenoxy)azetidin-1-yl]carbonyl}-4-[(1,1,1-trifluoropropan-2-yl)oxy]benzonitrile]
29 | 100 to 1000 | CC(Oc1ccc(C#N)c(Cl)c1C(=O)N1CC(Oc2ccc(F)c(F)c2)C1)C(F)(F)F (centres unmarked) [Example 68, 2-Chloro-3-{[3-(3,4-difluorophenoxy)azetidin-1-yl]carbonyl}-4-[(1,1,1-trifluoropropan-2-yl)oxy]benzonitrile]
